From US6121241A, “Anticoagulant peptide aldehyde derivatives” (Gyogyszerkutato Intezet Kft., priority 1996, dated 2000)
Like-named read-outs stand apart in the source and are kept apart here.

Assays:
[1] = molecular target: T1, fibrin-gel bound thrombin (Homo sapiens, UniProt P00734); assay: Inhibition of thrombin bound to fibrin-gel (methods M4, M5); format: biochemical; conditions: Tos-Gly-Pro-Arg-pNA substrate
T1 construct: Here prothrombin is converted to thrombin; purchased SIGMA
Method: (§1) The plasma clot was obtained by the recalcification of platelet-rich human citrate plasma and fibrin gel by the coagulation of human fibrinogen with human thrombin Z-D-Arg-Gly-Arg-pNA and Tos Gly-Pro-Arg-pNA were used as substrates for measuring the activity of factor Xa and thrombin (methods M1-M5).
Preparation of Fibrin-Gel
a) 200 μL of 6 mg/mL human fibrinogen (SIGMA), 25 μL of 25 NIH U/mL human thrombin (SIGMA) and 40 μL of 100 mM calcium chloride solution are placed in each reaction vessel and the mixtures are stored for one hour at 20-22° C. The fibrin formed is rinsed mildly with 3×2 ml of isotonic saline solution followed by sedimentation to remove the thrombin content of the solution. The efficacy of rinsing is controlled by the process described in Method M1, point c).
Assay of the Inhibition of Thrombin Bound to Fibrin-Gel
a) 0.1-1.0-10 and 100 μg/ml solutions are prepared with Hepes/NaCl buffer (0.01 M Hepes and 0.1 M sodium chloride, pH=7.4).
b) Thereafter the procedure described in Method M3, point b) is followed.

[2] = molecular target: T2, plasma clot entrapped thrombin (Homo sapiens, UniProt P00734); assay: Inhibition of thrombin entrapped in plasma clot (methods M1, M3); format: biochemical; conditions: platelet-rich human plasma clot; Tos-Gly-Pro-Arg-pNA substrate
T2 construct: Here prothrombin is converted to thrombin; from tissue; host or cells: clot of recalcified platelet-rich human citrate plasma
Method: as §1
Preparation of Plasma Clot
a) Platelet-rich plasma (PRP) is prepared by centrifuging a 9:1 mixture of human blood and 3.8% aqueous sodium citrate solution (1/2) for 5 minutes at 240×g.
b) 200 μL of PRP are placed in each reaction vessel, 80 μL of 40 mM calcium chloride solution is added and the mixture is left to stand at room temperature for one hour. The plasma clot formed is rinsed mildly with 6×2 ml of 0.9% sodium chloride solution followed by 5 minute sedimentation to remove the dissolved enzymes (factor Xa and thrombin). The thrombin content of the washings is assayed as follows.
c) To 400 μL of washing liquid 100 μL of 1 mM Tos-Gly-Pro-Arg-pNA substrate solution is added and the mixture is incubated for 30 minutes at 37° C., then the reaction is stopped by the addition of 100 μL of 50% acetic acid. 150 μL portions of this mixture are transferred into the wells of the 96-well microtiter plate and the extinction is measured at 405 nm (ELISA READER SLT Laborinstrument GmbH, Austria). When the washing is successful, the extinction is less than 5% of the control
Assay of the Inhibition of Thrombin Entrapped in Plasma Clot
a) Peptide inhibitor solutions are prepared by the process described in Method M2, point a).
b) After draining the washing liquid, 400 μL of the peptide solution (3 parallel samples for each concentration) and 400 μL of buffer, serving as control, are placed on the clot (Method M1) and the mixture is incubated for 5 minutes at 37° C. Thereafter 100 μL of […] Tos-Gly-Pro-Arg-pNA substrate solution is added and incubation at 37° C. is continued for further 30 minutes, then the reaction is stopped by the addition of 100 μL of 50% acetic acid. The operation is continued as described in Method M2, point c).

[3] = system: activated partial thromboplastin time (APTT); assay: Ex vivo APTT in citrate plasma of rabbits after p.o. dosing; set-up: species or system New Zealand white rabbits; conditions: p.o. 5 mg/kg
Method: (§2) The anticoagulant and platelet aggregation inhibiting effect of the compounds of general formula (I) was studied In New Zealand white rabbits ex vivo according to D. Bagdy et al [Thromb. Haemost 67. 357 (1992). The compounds were dissolved in buffered isotonic saline solution and administered i.v. (0,04-5.0 mg/kg) or by infusion (0.25-5.0 mg/kg/h) or subcutaneously (0.5-6.0 mg/kg) or p.o. (2.5-20 mg/kg). The effect of the compounds was detectable already within 30 minutes following p.o. administration, peak values were attained after 60-180 minutes and the therapeutic level was maintained dose-dependently for 3→6 hours.
(§3) The in vivo effect of D-cHga Pro-Arg-H (1) is presented in detail in Tables 5 and 6. The corresponding values of C1 are listed as controls. The compound was administered p.o. in doses of 5 mg/kg. The blood samples drawn from the caudal vein in every 30-60 minutes were analyzed. The whole blood clotting time (WBCT) and the inhibition of thrombin-induced blood platelet aggregation (PAI) were determined. The activated partial thromboplastin time (APTT) and the thrombin time (TT) in the citrate plasma obtained from the blood sample were also measured. The APTT and TT values are compiled in Table 5 and the WBCT and PAI values in Table 6.

[4] = molecular target: tissue plasminogen activator (tPA) (Homo sapiens, UniProt P00750); assay: Fibrin-plate method, plasmin formation induced by tPA; format: biochemical; conditions: for IC50: fibrin-plate method, hydrolyzed area reduced by 50%
tissue plasminogen activator (tPA), sequence (P00750 36-562, species assumed): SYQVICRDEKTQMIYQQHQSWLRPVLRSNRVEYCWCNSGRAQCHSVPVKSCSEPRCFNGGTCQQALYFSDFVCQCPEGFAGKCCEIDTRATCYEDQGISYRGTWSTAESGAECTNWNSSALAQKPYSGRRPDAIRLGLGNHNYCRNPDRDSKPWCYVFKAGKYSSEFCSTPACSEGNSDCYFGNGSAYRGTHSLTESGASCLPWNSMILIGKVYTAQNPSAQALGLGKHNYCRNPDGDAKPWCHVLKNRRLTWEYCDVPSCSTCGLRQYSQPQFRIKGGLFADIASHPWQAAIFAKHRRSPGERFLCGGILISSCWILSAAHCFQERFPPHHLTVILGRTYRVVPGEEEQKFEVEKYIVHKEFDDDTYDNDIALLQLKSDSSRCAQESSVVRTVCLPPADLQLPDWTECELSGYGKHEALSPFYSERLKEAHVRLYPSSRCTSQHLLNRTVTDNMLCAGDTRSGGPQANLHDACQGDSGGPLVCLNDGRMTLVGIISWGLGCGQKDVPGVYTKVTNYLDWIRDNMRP
Description: (§4) The inhibitory effect of the new compounds of the invention on plasmin (PL) as well as on plasmin formation induced by tissue plasminagen activator (tPA) and urokinase (UK) was studied by the […] [D. Bagdy et al.; Thromb. Haemost. 67, 325 (1992)]. Compounds C1 and C3 served as controls. […] V. Jackson et al., J. Cardiovasc. Pharmacol. 21, 587 (1993)].
(§5) ^a IC50 = peptide concentration (mM) where the hydrolyzed area o
(§6) the fibrin plate is reduced by 50% compared to the control

urokinase (UK) = urokinase (UK) (Homo sapiens, UniProt P00749); assay: Fibrin-plate method, plasmin formation induced by urokinase; format: biochemical; conditions: for IC50: fibrin-plate method, hydrolyzed area reduced by 50%
Description: as §4, §5, §6

[5] = system: thrombin-induced blood platelet aggregation; assay: Ex vivo inhibition of thrombin-induced blood platelet aggregation (PAI) in rabbits after p.o. dosing; set-up: species or system New Zealand white rabbits; conditions: p.o. 5 mg/kg
Method: as §2, §3

plasmin (PL) = plasmin (PL) (Homo sapiens, UniProt P00747); assay: Fibrin-plate method, plasmin; format: biochemical; conditions: for IC50: fibrin-plate method, hydrolyzed area reduced by 50%
plasmin (PL), sequence (P00747 581-810 limits assumed, species assumed): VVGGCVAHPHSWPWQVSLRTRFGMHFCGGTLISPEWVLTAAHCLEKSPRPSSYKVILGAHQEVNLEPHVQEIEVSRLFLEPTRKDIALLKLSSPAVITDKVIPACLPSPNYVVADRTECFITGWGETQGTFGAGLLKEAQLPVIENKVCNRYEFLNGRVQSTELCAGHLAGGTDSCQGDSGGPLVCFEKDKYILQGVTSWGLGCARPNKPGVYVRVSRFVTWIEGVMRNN
plasmin (PL), sequence (P00747 97-580 partner limits assumed, species assumed): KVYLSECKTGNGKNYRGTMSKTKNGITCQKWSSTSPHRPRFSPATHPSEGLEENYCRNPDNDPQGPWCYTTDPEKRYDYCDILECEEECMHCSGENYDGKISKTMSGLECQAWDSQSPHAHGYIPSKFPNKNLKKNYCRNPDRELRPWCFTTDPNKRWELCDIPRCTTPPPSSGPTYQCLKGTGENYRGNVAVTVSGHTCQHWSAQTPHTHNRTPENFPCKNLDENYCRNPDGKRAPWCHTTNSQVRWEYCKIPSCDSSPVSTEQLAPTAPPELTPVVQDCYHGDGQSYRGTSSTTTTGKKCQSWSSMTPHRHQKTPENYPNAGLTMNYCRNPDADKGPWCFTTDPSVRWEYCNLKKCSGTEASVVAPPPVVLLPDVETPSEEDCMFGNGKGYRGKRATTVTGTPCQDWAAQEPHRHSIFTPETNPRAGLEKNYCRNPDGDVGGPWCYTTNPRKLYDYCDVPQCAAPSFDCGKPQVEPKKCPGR
Description: as §4, §5, §6

[6] = related to the activity of C1 (1/IC50 = 1)

Row | SMILES | IC50 [1] [µM] | IC50 [2] [µM] | APTT relative clotting time ([3]; 0 min) | APTT relative clotting time ([3]; 30 min) | APTT relative clotting time ([3]; 45 min) | APTT relative clotting time ([3]; 60 min) | APTT relative clotting time ([3]; 90 min) | APTT relative clotting time ([3]; 120 min) | APTT relative clotting time ([3]; 180 min) | APTT relative clotting time ([3]; 240 min) | APTT relative clotting time ([3]; 300 min) | IC50 [4] [µM] | IC50 (urokinase (UK)) [µM] | PAI(%) ([5]; 0 min) | PAI(%) ([5]; 30 min) | PAI(%) ([5]; 45 min) | PAI(%) ([5]; 60 min) | PAI(%) ([5]; 90 min) | PAI(%) ([5]; 120 min) | PAI(%) ([5]; 180 min) | further results
1 | N=C(N)NCCC[C@@H](C=O)NC(=O)[C@H]1CCCN1C(=O)C(O)C1CCCCCC1.N=C(N)NCCC[C@@H](C=O)NC(=O)[C@H]1CCCN1C(=O)C(O)C1CCCCCC1.O=S(=O)(O)O (stereo partly drawn) [Compound 1, D-2-Cycloheptyl-2-hydroxyacetyl-L-prolyl-L-arginine aldehyde hemisulfate] | 0.21 | 0.52 | 1.0 | 2.01 ± 0.43 | 2.25 ± 0.43 | 2.32 ± 0.43 | 2.11 ± 0.31 | 1.84 ± 0.11 | 1.66 ± 0.10 | 1.37 ± 0.08 | 1.31 ± 0.09 | 74 | 120 | 0 | 71.0 ± 19.4 | 74.0 ± 13.9 | 91.0 ± 4.5 | 93.0 ± 3.5 | 92.4 ± 6.5 | 71.6 ± 19.8 | B: relative efficacy, tPA [4]: 1.8; times lower activity than compound C3, second enzyme (tPA) ([4]; versus C3 of Table 4): 12; B: relative efficacy, UK (urokinase (UK)): 0.7; times lower activity than compound C3, third enzyme (UK) (urokinase (UK); versus C3 of Table 4): 39; PAI(%) ([5]; 240 min): 49.4 ± 21.5%; B: relative efficacy, PL (plasmin (PL)): 0.6; IC50 (plasmin (PL)): 83 µM; times lower activity than compound C3, first enzyme (PL) (plasmin (PL); versus C3 of Table 4): 7.5
2 | CN[C@H](Cc1ccccc1)C(=O)N1CCC[C@H]1C(=O)N[C@H](C=O)CCCNC(=N)N [Compound C1, D-MePhe-Pro-Arg-H] | 0.3 | 0.38 | 1.0 | 1.27 ± 0.38 | 1.30 ± 0.02 | 1.37 ± 0.03 | 1.45 ± 0.09 | 1.43 ± 0.11 | 1.39 ± 0.09 | 1.31 ± 0.11 | 1.25 ± 0.22 | 132 | 82 | 0 | 52.8 ± 14.7 | 58.4 ± 15.6 | 54.2 ± 11.6 | 83.2 ± 8.9 | 75.2 ± 12.3 | 47.5 ± 20.9 | B: relative efficacy, tPA [4, 6]: 1.0; B: relative efficacy, UK (urokinase (UK); [6]): 1.0; PAI(%) ([5]; 240 min): 32.2 ± 16.0%; IC50 (plasmin (PL)): 54 µM; B: relative efficacy, PL (plasmin (PL); [6]): 1.0
